Data taken from the supplement of paper PMC10307832.

Columns and labels:
Assay in all cases: relative viability (nuclei count vs DMSO), 5 days (fraction); higher = more cells survive
[1] = compound: C1CNCCC1C2=CC(=NN2)C3=CC=NC=C3 + COc1cc2c(Oc3ccc(NC(=O)C4(C(=O)Nc5ccc(F)cc5)CC4)cc3F)ccnc2cc1OCCCN1CCOCC1 [Foretinib] (partner 0.25 µM)
Summary of the method: (§1)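 Relative viability divides the nuclei count in treated wells by that in vehicle wells. Lung cancer cell lines were seeded in 1536-well plates, dosed by pin tool the next day, and fixed and stained after 5 days in one step with final 0.05% Triton X-100, 1% formaldehyde and 1 ug/ml Hoechst. Dosing was a single drug or a fixed anchor-drug dose plus five library-drug doses (not always all listed) in √10 steps, and values are medians of duplicate plates imaged at 4×.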

[2] = compound: O[C@H]1CC[C@H](Nc2ncc3nc(Nc4c(F)cc(F)cc4F)n([C@H]4CCOC4)c3n2)CC1 [Tanzisertib] + COc1cc2c(Oc3ccc(NC(=O)C4(C(=O)Nc5ccc(F)cc5)CC4)cc3F)ccnc2cc1OCCCN1CCOCC1 [Foretinib] (partner 0.25 µM)
Summary of the method: as §1

[3] = compound: C1CNCCC1C2=CC(=NN2)C3=CC=NC=C3 + CC(=O)Nc1cccc(-n2c(=O)n(C3CC3)c(=O)c3c(Nc4ccc(I)cc4F)n(C)c(=O)c(C)c32)c1 [Trametinib] (partner 0.02 µM)
Summary of the method: as §1

[4] = compound: C1CNCCC1C2=CC(=NN2)C3=CC=NC=C3 + Cc1cc(Nc2cc(N3CCN(C)CC3)nc(Sc3ccc(NC(=O)C4CC4)cc3)n2)n[nH]1 [Tozasertib] (partner 0.1 µM)
Summary of the method: as §1

NCI-H2228
relative viability ([1]; first compound 0.08 µM): 0.871
relative viability ([1]; first compound 0.8 µM): 0.929
relative viability ([1]; first compound 2.53 µM): 0.939
relative viability ([1]; first compound 8 µM): 0.911
relative viability ([2]; first compound 0.08 µM): 0.961
relative viability ([2]; first compound 0.253 µM): 0.869
relative viability ([2]; first compound 0.8 µM): 0.928
relative viability ([2]; first compound 2.53 µM): 0.733
relative viability ([2]; first compound 8 µM): 0.68
relative viability ([3]; first compound 0.08 µM): 0.56
relative viability ([3]; first compound 0.8 µM): 0.37
relative viability ([3]; first compound 2.53 µM): 0.696
relative viability ([3]; first compound 8 µM): 0.7
relative viability ([4]; first compound 0.08 µM): 0.28
relative viability ([4]; first compound 0.8 µM): 0.191
relative viability ([4]; first compound 2.53 µM): 0.274
relative viability ([4]; first compound 8 µM): 0.309

CAL-12T
relative viability ([1]; first compound 0.08 µM): 1.09
relative viability ([1]; first compound 0.8 µM): 1.11
relative viability ([1]; first compound 2.53 µM): 1.22
relative viability ([1]; first compound 8 µM): 1.06
relative viability ([2]; first compound 0.08 µM): 1.11
relative viability ([2]; first compound 0.253 µM): 1.13
relative viability ([2]; first compound 0.8 µM): 1.05
relative viability ([2]; first compound 2.53 µM): 1.25
relative viability ([2]; first compound 8 µM): 1.07
relative viability ([3]; first compound 0.08 µM): 0.351
relative viability ([3]; first compound 0.8 µM): 0.363
relative viability ([3]; first compound 2.53 µM): 0.363
relative viability ([3]; first compound 8 µM): 0.419
relative viability ([4]; first compound 0.08 µM): 0.334
relative viability ([4]; first compound 0.8 µM): 0.34
relative viability ([4]; first compound 2.53 µM): 0.313
relative viability ([4]; first compound 8 µM): 0.342

A-427
relative viability ([1]; first compound 0.08 µM): 1.11
relative viability ([1]; first compound 0.8 µM): 1.21
relative viability ([1]; first compound 2.53 µM): 1.13
relative viability ([1]; first compound 8 µM): 1.04
relative viability ([2]; first compound 0.08 µM): 1.18
relative viability ([2]; first compound 0.253 µM): 1.05
relative viability ([2]; first compound 0.8 µM): 1.02
relative viability ([2]; first compound 2.53 µM): 0.939
relative viability ([2]; first compound 8 µM): 1.04
relative viability ([3]; first compound 0.08 µM): 0.748
relative viability ([3]; first compound 0.8 µM): 0.857
relative viability ([3]; first compound 2.53 µM): 0.779
relative viability ([3]; first compound 8 µM): 0.874
relative viability ([4]; first compound 0.08 µM): 0.203
relative viability ([4]; first compound 0.8 µM): 0.214
relative viability ([4]; first compound 2.53 µM): 0.19
relative viability ([4]; first compound 8 µM): 0.22

HARA
relative viability ([1]; first compound 0.08 µM): 0.842
relative viability ([1]; first compound 0.8 µM): 1.21
relative viability ([1]; first compound 2.53 µM): 0.993
relative viability ([1]; first compound 8 µM): 0.707
relative viability ([2]; first compound 0.08 µM): 0.817
relative viability ([2]; first compound 0.253 µM): 0.925
relative viability ([2]; first compound 0.8 µM): 0.86
relative viability ([2]; first compound 2.53 µM): 0.889
relative viability ([2]; first compound 8 µM): 0.74
relative viability ([3]; first compound 0.08 µM): 0.616
relative viability ([3]; first compound 0.8 µM): 0.709
relative viability ([3]; first compound 2.53 µM): 0.762
relative viability ([3]; first compound 8 µM): 1.09
relative viability ([4]; first compound 0.08 µM): 0.12
relative viability ([4]; first compound 0.8 µM): 0.0979
relative viability ([4]; first compound 2.53 µM): 0.11
relative viability ([4]; first compound 8 µM): 0.0912

NCI-H1793
relative viability ([1]; first compound 0.08 µM): 0.619
relative viability ([1]; first compound 0.8 µM): 0.659
relative viability ([1]; first compound 2.53 µM): 0.72
relative viability ([1]; first compound 8 µM): 0.654
relative viability ([2]; first compound 0.08 µM): 0.659
relative viability ([2]; first compound 0.253 µM): 0.74
relative viability ([2]; first compound 0.8 µM): 0.734
relative viability ([2]; first compound 2.53 µM): 0.569
relative viability ([2]; first compound 8 µM): 0.547
relative viability ([3]; first compound 0.08 µM): 0.459
relative viability ([3]; first compound 2.53 µM): 0.414
relative viability ([3]; first compound 8 µM): 0.406
relative viability ([4]; first compound 0.08 µM): 0.313
relative viability ([4]; first compound 0.8 µM): 0.243
relative viability ([4]; first compound 2.53 µM): 0.332
relative viability ([4]; first compound 8 µM): 0.373

NCI-H1623
relative viability ([1]; first compound 0.08 µM): 0.891
relative viability ([1]; first compound 0.8 µM): 0.702
relative viability ([1]; first compound 2.53 µM): 1.03
relative viability ([1]; first compound 8 µM): 0.924
relative viability ([2]; first compound 0.08 µM): 0.956
relative viability ([2]; first compound 0.253 µM): 0.815
relative viability ([2]; first compound 0.8 µM): 0.912
relative viability ([2]; first compound 2.53 µM): 0.834
relative viability ([2]; first compound 8 µM): 0.788
relative viability ([4]; first compound 0.08 µM): 0.434
relative viability ([4]; first compound 0.8 µM): 0.446
relative viability ([4]; first compound 2.53 µM): 0.439
relative viability ([4]; first compound 8 µM): 0.454

NCI-H2009
relative viability ([1]; first compound 0.08 µM): 1.2
relative viability ([1]; first compound 0.8 µM): 1.19
relative viability ([1]; first compound 2.53 µM): 1.17
relative viability ([1]; first compound 8 µM): 1.19
relative viability ([2]; first compound 0.08 µM): 1.21
relative viability ([2]; first compound 0.253 µM): 1.19
relative viability ([2]; first compound 0.8 µM): 1.24
relative viability ([2]; first compound 2.53 µM): 1.27
relative viability ([2]; first compound 8 µM): 1.03
relative viability ([3]; first compound 0.08 µM): 0.248
relative viability ([3]; first compound 0.8 µM): 0.257
relative viability ([3]; first compound 2.53 µM): 0.376
relative viability ([3]; first compound 8 µM): 0.298
relative viability ([4]; first compound 0.08 µM): 0.713
relative viability ([4]; first compound 0.8 µM): 0.74
relative viability ([4]; first compound 2.53 µM): 0.689
relative viability ([4]; first compound 8 µM): 0.696

ABC-1
relative viability ([1]; first compound 0.08 µM): 1.04
relative viability ([1]; first compound 0.8 µM): 1.1
relative viability ([1]; first compound 2.53 µM): 1.46
relative viability ([1]; first compound 8 µM): 1.35
relative viability ([2]; first compound 0.08 µM): 0.91
relative viability ([2]; first compound 0.253 µM): 1.14
relative viability ([2]; first compound 0.8 µM): 0.909
relative viability ([2]; first compound 2.53 µM): 0.876
relative viability ([2]; first compound 8 µM): 0.706
relative viability ([4]; first compound 0.08 µM): 0.145
relative viability ([4]; first compound 0.8 µM): 0.17
relative viability ([4]; first compound 2.53 µM): 0.201
relative viability ([4]; first compound 8 µM): 0.176

IA-LM
relative viability ([1]; first compound 0.08 µM): 1.09
relative viability ([1]; first compound 0.8 µM): 1.37
relative viability ([1]; first compound 2.53 µM): 1.19
relative viability ([1]; first compound 8 µM): 1.26
relative viability ([2]; first compound 0.08 µM): 1.02
relative viability ([2]; first compound 0.253 µM): 1.28
relative viability ([2]; first compound 0.8 µM): 1.04
relative viability ([2]; first compound 2.53 µM): 1.28
relative viability ([2]; first compound 8 µM): 1.09

NCI-H322M
relative viability ([1]; first compound 0.08 µM): 0.965
relative viability ([1]; first compound 0.8 µM): 1.1
relative viability ([1]; first compound 2.53 µM): 1.02
relative viability ([1]; first compound 8 µM): 1.13
relative viability ([2]; first compound 0.08 µM): 1.02
relative viability ([2]; first compound 0.253 µM): 0.962
relative viability ([2]; first compound 0.8 µM): 0.886
relative viability ([2]; first compound 2.53 µM): 0.961
relative viability ([2]; first compound 8 µM): 0.97
relative viability ([3]; first compound 0.08 µM): 0.511
relative viability ([3]; first compound 0.8 µM): 0.533
relative viability ([3]; first compound 2.53 µM): 0.516
relative viability ([3]; first compound 8 µM): 0.575
relative viability ([4]; first compound 0.08 µM): 0.461
relative viability ([4]; first compound 0.8 µM): 0.462
relative viability ([4]; first compound 2.53 µM): 0.523
relative viability ([4]; first compound 8 µM): 0.503
